According to US10463656B2, “Methods and compositions for prevention of feedlot bovine respiratory disease” (Iowa State University Research Foundation, Inc., priority 2017, dated 2019):
Entries after “also recorded” stand apart in the source; their conditions may differ.

Tests used:
[1] = molecular target: T1, Bovine H1 histamine receptor (Bos taurus, UniProt P30546); test: Histamine-mediated intracellular calcium accumulation in BHK cells transiently expressing bovine H1 histamine receptor; format: cell-based; settings: 10 nM histamine; transfected BHK cells
T1 construct: expressed in transfected cells; host or cells: BHK cells, transient transfection with lipofectamine, pcDNA3.3
Method: Bovine H1 histamine receptor was cloned into pcDNA3.3 expression vector and transiently expressed in BHK tissue culture cells using lipofectamine as per Carlson et al. Ten nM histamine was then added to the cells in the presence of various concentrations of rupatadine, tripelennamine, lexipafant, or WEB2086. Intracellular calcium accumulation was monitored in the transfected cells using a commercially available kit (Abcam, Cambridge, Mass.). IC50 values were then determined by identifying the concentration of the antagonist that reduced the maximal PAF-mediated intracellular calcium accumulation by 50%. […] Therefore, as showing in Examples 11 and 12, rupatadine is the only antihistamine that can also block the function of PAFR.

[2] = molecular target: T2, Bovine PAFR (Bos taurus, UniProt Q9TTY5); test: PAF-mediated intracellular calcium accumulation in BHK cells transiently expressing bovine PAFR; format: cell-based; settings: 10 nM PAF, transfected BHK cells; for block of bovine PAFR function, PAF-mediated intracellular calcium accumulation (FIG. 11): antagonist 1-100 nM; for block of bovine PAFR function by antihistamines, PAF-mediated intracellular calcium accumulation (FIG. 12): antihistamine 1-100 nM
T2 construct: expressed in transfected cells; host or cells: BHK cells, transient transfection with lipofectamine, pcDNA3.3-PAFR

[3] = test system: PAFR; test: PAFR level in blood of treated calves by qRT-PCR (Example 14); format: in vivo; settings: weekly depot injection versus control and other rupatadine treatments
Method: Blood was extracted from all 25 calves was extracted weekly and the level of PAFR was assayed using qRT-PCR and the theoretical copies of transcript/200 ng of total RNA. […] However, it dropped the most in the weekly depot injection calves during the last three weeks of observations.

[4] = test system: BRD; test: BRD prevention in high-risk calves, weekly injections (Example 13); format: in vivo; settings: after five weeks of weekly subcutaneous 7 mg/kg; BRD(+) calves usually >25%
Method: Twenty-five high-risk BRD calves were transported to a new barn and five each were assigned to different treatment groups: no treatment, weekly subcutaneous injections of 7 mg/kg of rupatadine, weekly injections of 1 mg/kg tripelennamine, weekly injections of 10 mg/kg WEB2086, and weekly injections of 1 mg/kg tripelennamine and 10 mg/kg WEB2086. The animals were observed over the next five weeks twice daily for BRD. Any animal who required antibiotics for treating the clinical signs of BRD was classified as having BRD. […] Four of the five (80%, n=4 of 5) animals receiving tripelennamine only developed BRD.
After the five weeks, the rupatadine treated animals were euthanized and the lungs removed and necropsied. Three veterinarians then assessed the lungs for signs of disease, such as abscessation or consolidation. […] Lung pathology in BRD(+) calves is usually >25%, and of the rupatadine treated animals, there was only about 5-10% disease identified by the veterinarians.

[5] = Pharmacotherapeutic study, blood levels after oral administration to feedlot calves; format: in vivo; settings: daily oral doses of 30 mg/animal for 5 days; six calves
Method: A pharmacotherapeutic study was completed to confirm the PAFRi survives the rumen and reaches therapeutic blood and lung concentrations following oral administration to feedlot calves. Six calves were purchased and given daily oral doses of 30 mg/animal of the drug rupatadine for 5 days. Blood was drawn five times on day one and twice per day thereafter to measure the blood levels of rupatadine.

[6] = molecular target: T3, PAFR (Bos taurus, UniProt Q9TTY5); test: Stress hormone- and commensal oral bacteria-mediated second messenger accumulation in calf blood cells; format: cell-based, cattle; settings: 500 nM inhibitor, blood of animals with increased PAFR expression, cortisol 5 ng/mL, norepinephrine 100 pg/mL, 10^6 CFUs/mL bacteria, six hours 37°C
T3 construct: endogenous in cells; host or cells: whole blood cells of cattle (ex vivo)
Source text: A PAFR inhibitor blocks the stress hormone- and commensal oral bacteria-mediated second messenger accumulation in calf blood cells that have an increase in expression of PAFR. Studies presented in Example 1 and FIG. 1 were repeated with the inclusion of the compositions comprising the anti-inflammatory drug rupatadine according to the invention. Blood was drawn from 10 animals that have an increase in PAFR expression (those in which an RT-PCR amplicon was visible after 10-15 cycles) and 10 animals with “normal” or no PAFR expression (those in which an RT-PCR amplicon was visible after 30-45 cycles).
Approximately 5 mL of whole blood was collected from the jugular or caudal vein of non-transported juvenile and adult cattle. Blood was placed in EDTA tubes, aliquoted, and cortisol (5 ng/mL) and norepinephrine (100 pg/mL) were added to some of the blood. The next day, blood samples were incubated with 0 or 10^6 CFUs/mL of commensal oral bacteria, 0 or 500 nM of the inhibitor, and a second messenger reagent for six hours at 37° C. with gentle rolling. After the six-hour incubation period, blood samples were analyzed for the production of second messengers. Data was standardized based on second messenger production in the presence of vehicle. […] Fifty ng of total RNA was then subjected to semi-quantitative RT-PCR to confirm the PAFR expression status of each animal.

[7] = test system: BRD; test: BRD prevention at the feedlot, drug in the feed; format: in vivo, calves
Method: An initial study was performed to confirm BRD prevention at the feedlot using an anti-inflammatory composition comprising rupatadine, the oral inhibitor of PAFR. A total of 18 calves were evaluated with the treatment arm receiving a dosage rate of 0.3 mg/kg. Calves were provided the drug in the feed during the first three weeks after entering the feedlot which is within the high risk 6-week period following transfer of the animal. Calves were purchased from a location in Joplin, Mo. having an overall incidence of BRD at >40% which is higher than the standard incidence of about 10% in cattle.
A further study was performed to confirm BRD prevention at the feedlot using the anti-inflammatory composition comprising rupatadine. The same methodology of Example 5 was employed with the modification of the number of calves and the dosage rate. The dosage rate was increased to 0.6 mg/kg. The number of calves were increased to 24 in total. The results are consistent to the first trial, including: 41.7% of treated calves (n=5 of 12) developed BRD whereas 100% of untreated calves (n=12 of 12) developed BRD.
A further study was performed to confirm BRD prevention at the feedlot using the anti-inflammatory composition comprising rupatadine as outlined in Example 5 with the modification of the number of calves (20 total) and the dosage rate. The dosage rate increased to 1.2 mg/kg.

[8] = test system: BRD; test: BRD prevention in high-risk calves, treatment methods of rupatadine (Example 14); format: in vivo
Method: In order to test various treatment methods of rupatadine, 25 high-risk calves were transported to a new farm. Seven calves were used as controls, six were given rupatadine as a single oral dose of 1 mg/kg, six were given rupatadine as a single subcutaneous injection of 7 mg/kg, six calves were given weekly subcutaneous injections of 7 mg/kg rupatadine. The animals were observed over the next five weeks twice daily for BRD. Any animal who required antibiotics for treating the clinical signs of BRD was classified as having BRD.
All the calves (100%, n=6 of 6) eventually developed BRD between days three and 31. […] The calf that did develop BRD did so on day 31.

T2 sequence (Q9TTY5 whole entry): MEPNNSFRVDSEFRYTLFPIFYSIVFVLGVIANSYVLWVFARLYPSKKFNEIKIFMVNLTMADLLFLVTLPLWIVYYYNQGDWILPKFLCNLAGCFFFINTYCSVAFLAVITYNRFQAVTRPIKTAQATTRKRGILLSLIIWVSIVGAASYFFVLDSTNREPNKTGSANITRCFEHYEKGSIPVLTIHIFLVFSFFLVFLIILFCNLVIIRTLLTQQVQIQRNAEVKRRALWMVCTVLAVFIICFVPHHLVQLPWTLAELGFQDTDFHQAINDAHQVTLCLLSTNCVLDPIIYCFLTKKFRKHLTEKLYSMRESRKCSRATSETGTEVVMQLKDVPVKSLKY
T1 sequence (P30546 whole entry): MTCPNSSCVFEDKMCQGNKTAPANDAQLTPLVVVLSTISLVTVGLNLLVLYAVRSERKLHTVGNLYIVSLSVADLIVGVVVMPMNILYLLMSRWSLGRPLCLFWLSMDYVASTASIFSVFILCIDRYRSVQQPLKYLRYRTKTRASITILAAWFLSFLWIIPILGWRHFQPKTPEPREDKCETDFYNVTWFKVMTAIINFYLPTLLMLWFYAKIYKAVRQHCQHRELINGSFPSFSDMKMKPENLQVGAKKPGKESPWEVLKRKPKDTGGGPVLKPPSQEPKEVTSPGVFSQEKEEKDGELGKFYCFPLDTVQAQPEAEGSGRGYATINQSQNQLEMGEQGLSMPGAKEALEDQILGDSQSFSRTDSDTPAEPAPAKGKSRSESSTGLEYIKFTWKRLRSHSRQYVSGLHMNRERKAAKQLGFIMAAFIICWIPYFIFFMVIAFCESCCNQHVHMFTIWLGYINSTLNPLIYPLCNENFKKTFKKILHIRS
T3 sequence (Q9TTY5 whole entry): as the sequence (Q9TTY5 whole entry) above

SMILES	block of the function of the H1 histamine receptor, intracellular calcium accumulation (FIG. 13) [1]	block of bovine PAFR function, PAF-mediated intracellular calcium accumulation (FIG. 11) [2]	block of bovine PAFR function by antihistamines, PAF-mediated intracellular calcium accumulation (FIG. 12) [2]	further results
Cc1nnc2n1-c1sc(CCC(=O)N3CCOCC3)cc1C(c1ccccc1Cl)=NC2 [WEB2086]	fail to black	blocked	–	–
OCCOCCN1CCN(C(c2ccccc2)c2ccc(Cl)cc2)CC1 (stereo not shown) [hydroxyazine]	–	–	do not block	–
Cc1cncc(CN2CCC(=C3c4ccc(Cl)cc4CCc4cccnc43)CC2)c1 [rupatadine, 8-chloro-11-[1-[(5-methyl-3-pyridyl)methyl]-4-piperidyliden]-6,11-dihydro-5H-benzo[5,6]cyclohepta[1,2-b]pyridine]	able to block	blocked	able to block PAFR function; also recorded: blocks	PAFR expression over a five-week period [3]: greatest decrease in PAFR expression; lung disease identified by the veterinarians at necropsy [4]: 5-10%; blood levels of rupatadine (FIG. 9) [5]: reaches therapeutic concentrations more rapidly than in humans; stress hormone- and commensal oral bacteria-mediated second messenger accumulation [6]: blocks; stress hormone- and commensal oral bacteria-mediated second messenger accumulation ([6]; listed as PAFRi): indistinct from normal or non-expressing samples; treated calves that developed BRD ([7]; 0.3 mg/kg in the feed, first three weeks after entering the feedlot, 8 treated calves, within 5 weeks): 50%; treated calves that developed BRD ([7]; 0.6 mg/kg in the feed, n=5 of 12): 41.7%; treated calves that developed BRD ([7]; 1.2 mg/kg in the feed, n=3 of 10): 33.3%; high risk animals that did not develop BRD ([8]; weekly long-acting injections of 7 mg/kg): five out of six; animals that developed BRD ([8]; weekly subcutaneous injections of 7 mg/kg, five-week observation, n=6): 16.7%; day on which the calf developed BRD ([8]; weekly subcutaneous injections of 7 mg/kg, the one calf that developed BRD): 31 days

Continued, in another order:

block of the function of the H1 histamine receptor, intracellular calcium accumulation (FIG. 13) [1]	block of bovine PAFR function, PAF-mediated intracellular calcium accumulation (FIG. 11) [2]	block of bovine PAFR function by antihistamines, PAF-mediated intracellular calcium accumulation (FIG. 12) [2]	SMILES	further results
fail to black	blocked	–	CCOC(=O)[C@H](CC(C)C)N(C)S(=O)(=O)c1ccc(Cn2c(C)nc3cnccc32)cc1 [lexipafant]	–
able to block	not blocked	do not block	CN(C)CCN(Cc1ccccc1)c1ccccn1 [tripelennamine]	–
–	–	do not block	CN(C)CCOC(c1ccccc1)c1ccccc1 [diphenhydramine]	–
–	–	do not block	COc1ccc(CN(CCN(C)C)c2ccccn2)cc1 [pyrilamine]	–
–	–	do not block	CC(CN1c2ccccc2Sc2ccccc21)N(C)C (stereo not shown) [promethazine]	–
